Columns and labels:
plasma renin = assay: Inhibition of plasma renin activity (PRA) after oral administration to sodium-depleted cynomolgus monkeys; format: in vivo, cynomolgus monkeys (Macaca fascicularis); details: sodium-depleted conscious monkeys, 0-6 hours
Experimental: (§1) Male or female cynomolgus monkeys (Macaca fascicularis) weighing about 2.5-3.5 kg were used. Sodium depletion was achieved by administering furosemide, 15 mg/kg subcutaneously one day before and then 10 mg/kg intravenously 30 minutes before the administration of the test compound.
(§2) Test compounds were dissolved in diluted equimolar hydrochloric acid (pH 5-6) and orally administered to conscious and trained monkeys placed in restraining chairs with pneumatic cuff positioned around the arm for oscillometric measurement of mean arterial blood pressure (MAP) (Model BP-203 NPJ, manufactured by Nippon Colin).
Blood samples were collected at 0, 0.5, 1, 2, 4 and 6 hours after dosing from the antecubital vein of the monkey into disodium salt of EDTA coated tubes, centrifuged for 10 min. (3000 rpm, 4° C.) and plasma was obtained for determination of plasma renin activity (PRA). PRA was measured as the rate of Ang I formation with the same principle as illustrated in Test 1. 100 μl of sample plasma was mixed with 100 μl of the solution of angiotensinase inhibitors (3 mM 8-hydroxyquinoline sulfate and 5 mM 2,3-dimercaptopropanol, SB-REN-1, SORIN BIOMEDICA, Italy). Half (100 μl) of the mixture was incubated at 37° C. for one hour and Ang I formed was determined by a commercial RIA kit (DINABOTT). The remaining half (100 μl) of the reaction mixture was kept at 4° C. for one hour to measure and correct for the preexisting Ang I in the plasma. Percentage inhibition of PRA was calculated by the following formula: [formula]
A37 : the amount of angiotensin I formed by incubation at 37° C. of plasma collected before dosing the test compound
A4 : the amount of angiotensin I formed by keeping at 4° C. of plasma collected before dosing the test compound
D37 : the amount of angiotensin I formed by incubation at 37° C. of plasma collected after dosing the test compound
D4 : the amount of angiotensin I formed by keeping at 4° C. of plasma collected after dosing the test compound.

[1] = system: mean arterial blood pressure (MAP); assay: Hypotensive effect after oral administration to conscious sodium-depleted cynomolgus monkeys (maximum percentage fall of MAP); format: in vivo, cynomolgus monkeys (Macaca fascicularis); details: 0-6 hours
Experimental: as §1, §2
The Map was measured at 0 (predosing base line), 0.5, 1, 2, 3, 4 and 6 hours after administration of the test compound. The maximum hypotensive effect was calculated as the maximum percentage fall of MAP from the pretreatment value.

renin = target: T1, renin (Homo sapiens, UniProt P00797); assay: Inhibition of human plasma renin activity (angiotensin I formation, RIA); format: biochemical; details: endogenous renin and angiotensinogen, pH 6.0, 37° C, 90 minutes, RIA of Ang I
T1 construct: endogenous renin and angiotensinogen in plasma; from tissue; host or cells: pooled human plasma (EDTA) from male volunteers
T1 sequence (P00797 67-406): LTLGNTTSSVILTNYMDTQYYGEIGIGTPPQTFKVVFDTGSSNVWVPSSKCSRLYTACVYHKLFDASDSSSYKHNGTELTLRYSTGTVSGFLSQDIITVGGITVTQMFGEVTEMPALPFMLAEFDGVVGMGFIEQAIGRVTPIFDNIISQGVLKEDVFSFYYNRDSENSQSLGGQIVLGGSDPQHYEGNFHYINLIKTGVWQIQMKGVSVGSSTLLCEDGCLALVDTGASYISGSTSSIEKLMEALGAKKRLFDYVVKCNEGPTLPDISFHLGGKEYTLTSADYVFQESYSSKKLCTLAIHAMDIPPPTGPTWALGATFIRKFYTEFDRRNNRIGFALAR
Experimental: Human plasma was collected from male volunteers pretreated with no drugs and used as a pool. Disodium salt of ethylenediaminetetraacetic acid (EDTA) was used as the anticoagulant. Plasma renin activity was measured as the rate of angiotensin I (Ang I) formation after incubation (37° C) of the endogenous renin and angiotensinogen in plasma at pH 6.0. The incubation mixture contained 250 μl of plasma, 5 μl of (phenylmethyl)sulfonyl fluoride, 30 μl of buffer (sodium, potassium-phosphate, pH 6.0), and 15 μl of an appropriate concentration of test compound in 50% ethyl alcohol-water vehicle. The Ang I formed after 90 minutes of incubation was measured by radioimmunoassay (RIA) which was carried out with a commercial kit, RENCTK 100 (manufactured by Commissariat A L'energic Atomique). Samples were incubated in duplicate and each tube was measured in duplicate in the RIA. Percentage inhibition of plasma renin activity was calculated by comparing the amount of Ang I produced with and without a test compound. The concentration of test compound that inhibited plasma renin activity by 50% (IC50) was determined by Probit method.

Compound	Maximum inhibition of PRA (%) (plasma renin; 32 mg/kg (po))	Maximum hypotensive effect (%) ([1]; 32 mg/kg (po))	IC50 (renin)	Maximum inhibition of PRA (%) (plasma renin; 3.2 mg/kg (po))	Maximum hypotensive effect (%) ([1]; 3.2 mg/kg (po))
CC(C)CC[C@H](O)[C@H](CC1CCCCC1)NC(=O)[C@H](Cc1c[nH]cn1)N(C)C(=O)[C@H](Cc1ccccc1)OC(=O)N(C)CCC(=O)N1CCOCC1 [(5)]	92%	18%	25 nM		
CC(C)CC[C@H](O)[C@H](CC1CCCCC1)NC(=O)[C@H](Cc1c[nH]cn1)N(C)C(=O)[C@H](Cc1ccccc1)OC(=O)N(C)CCN(C)C(=O)N1CCOCC1 [(23)]			4 nM	99%	19%
CC(C)CC[C@H](O)[C@H](CC1CCCCC1)NC(=O)[C@H](Cc1c[nH]cn1)N(C)C(=O)[C@H](Cc1ccccc1)OC(=O)N(C)CCN(C)C(=O)C(C)C [(24)]			8.7 nM	93%	15%
